Test [1] has as its system Staphylococcus aureus sp. 1130. Nature of the test: in vitro tube dilution test (MIC). Type of test: cell-based. The settings on record: read-out: MIC.
For another test, the system named is Vibrio coli 3811. The test is described as follows: in vitro tube dilution test (MIC). The test is classed as cell-based. The conditions noted are these: Campylobacter coli; Vibrio coli 3811, tube dilution; read-out: MIC.
A further test concerns Salmonella dublin. The test is described as follows: in vitro tube dilution test (MIC). Type of test: cell-based. The settings on record: Salmonella enterica; Salmonella dublin, tube dilution; read-out: MIC.
Another test relates to Erwinia amylovora. Nature of the test: Fire blight of pear, in vivo greenhouse test. The method, then:
An in vivo test was conducted against the fire blight organism, Erwinia amylovora. Plants infected with E. amylovora were sprayed with aqueous dispersions containing 100 ppm. and 500 ppm. of the test compounds. […] The compounds are identified below by their compound numbers in the above listing.

The subject of a further test is Streptococcus pyogenes. The test is described as follows: Tests in mice, Streptococcus pyogenes infection. Type of test: in vivo. The settings on record: S. pyogenes, two subcutaneous doses of 83 mg./kg., 1 and 5 hours. Here is the method:
(§1) Groups of laboratory mice were inoculatd with E. coli or with Streptococcus pyogenes. The 3-nitropyrazoles were administered in two different modes to the infected mice. In one group of tests, the compound was administered in two subcutaneous doses of 83 mg./kg. each, given 1 and 5 hours after the mice were inoculated with the organism. The mice were observed, and the results reported below as the number of days the treated mice survived the challenge.
(§2) In the other group of tests, the dose of each compound which allowed 50 percent of the treated mice to survive the challenge was determined. Again, the compound was administered in subcutane divided doses, 1 and 5 hours post-inoculation.

For test [2], the system named is H. meleagridis. Nature of the test: Blackhead in poultry, turkeys. Type of test: in vivo. Here is the method:
(§3) One- to three-week-old chicks and turkey poults were obtained from homogeneous source flocks and allocated into treatment groups. Some groups were held as infected, untreated controls, and other groups were treated with 3-nitropyrazoles by administering the compounds in the birds' feed. Various concentrations of the pyrazoles were administered to determine the least concentration which protected the birds. A few days after the administration of medicated feed began, all of the birds were challenged by rectally administering a suspension of at least 5,000 H. meleagridis protozoa per chick. The challenge organisms had been originally obtained from infected chickens, and were grown in vitro to provide a supply of organisms for testing.
(§4) The birds were held for about seven days after the challenge was administered, during which time the administration of pyrazole-medicated feed was continued. Then all of the chicks, including the untreated, infected controls, were sacrificed and necropsied. The cecum and the liver of each bird were examined for characteristic H. meleagridis lesions.
(§5) For each compound, the lowest feed concentration which gave an active response is indicated. While feed consumption data were not taken during the tests, the birds ate at such a rate that a feed concentration of 0.02 percent is equivalent to a treatment rate of about 10 mg./kg./day.

Another test deals with S. typhimurium. The test is described as follows: Salmonella typhimurium in chickens, medicated feed. The conditions noted are these: Test C, 200 gm./ton feed. The test is classed as in vivo, chicks.
In a further test the test system is Salmonella typhimurium. Nature of the test: Salmonellosis in chickens, single injection to day-old chicks. Type of test: in vivo. The conditions noted are these: Salmonella enterica, TYPHIMURIUM, 168 h; single injection of 60 mg./kg.; seven days; read-out: Survival (converted). In outline: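 Five day-old chicks per group received one injection of compound at 60 mg./kg., then were challenged next day by subcutaneous S. typhimurium at a dose lethal to most or all untreated controls. Read-out is survivor count, pooled over repeat groups, with untreated challenged controls run in each batch.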

The subject of the next test is Pasteurella multocida. Nature of the test: in vitro tube dilution test (MIC). Type of test: cell-based. The settings on record: tube dilution, read-out: MIC. In outline:
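Standard tube dilution test; MIC is the lowest compound concentration controlling growth, given in μg/mL.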

In test [3] the test system is Staphylococcus aureus 3055. Nature of the test: in vitro tube dilution test (MIC). The conditions noted are these: Staphylococcus aureus 3055, tube dilution. Type of test: cell-based. An excerpt:
(§6) The other preferred compounds of our invention have also been thoroughly tested in the in vitro tube dilution test.

Test [4] deals with Mycoplasma gallisepticum 38502. The test is described as follows: in vitro tube dilution test (MIC). The test is classed as cell-based. The settings on record: Mycoplasmoides gallisepticum; Mycoplasma gallisepticum 38502, tube dilution.
Source text: as §6

The test system of the next test is E. coli. The test is described as follows: Tests in mice, E. coli infection. Type of test: in vivo. The method, then:
as §1, §2

In the next test the test system is Pseudomonas sp. Nature of the test: in vitro tube dilution test (MIC). The test is classed as cell-based.
Source text: (§7) Our compound, 1-(2-hydroxyethyl)-3-nitro-4-pyrazolecarboxamide, has been extensively tested in vitro to determine the range of microorganisms against which it is active. The table of data below reports the minimum inhibitory concentration (MIC) at which the compound is effective in controlling a variety of microorganisms in a standard tube dilution test system. The MIC is reported as micrograms of compound per milliliter.
as §6

The subject of the next test is Mycoplasma hyorhinis. The test is described as follows: in vitro tube dilution test (MIC). The test is classed as cell-based.
Source text: as §7, §6

The next test has as its system avian E. coli. The test is described as follows: Colibacillosis in chickens, medicated feed. Type of test: in vivo. The conditions noted are these: 300 gm./ton feed; about 5 weeks old; 10^-2 dilution challenge; first test.
Another test has as its system E. amylovora. Nature of the test: Fire blight of apple, induced infection of McIntosh apple seedlings. The test is classed as in vivo. The conditions noted are these: 6 days, scale 1 (symptoms in main stem) to 4 (complete control). An excerpt:
A typical test of one of our compounds against an induced E. amylovora infection of McIntosh apple seedlings will be reported. The compound, [2-(4-carbamoyl-3-nitropyrazol-1-yl)ethyl] phenyl carbonate, was sprayed on the seedlings as an aqueous dispersion at the concentrations shown below. Four replicate trees were used per treatment. After the spray had dried, each tree was challenged by punching a hole through the midvein at the tip of one leaf per plant, and placing a drop of an E. amylovora culture in the hole.
After 6 days, the trees were observed, and the control of the infection was rated on the following scale.
1 = disease symptoms in main stem
2 = disease symptoms in petiole
3 = disease symptoms in the leaf only
4 = complete control of disease
The results are shown below as the mean disease control rating.

In test [5] the test system is mycoplasma which causes aster yellows. The test is described as follows: Aster yellows disease test. The settings on record: 20 days. Type of test: in vivo, aster plants. An excerpt:
The following data report a test of an exemplary compound against aster yellows disease. The compound, [2-(4-carbamoyl-3-nitropyrazol-1-yl)ethyl] phenyl carbonate, was applied to aster plants as an aqueous dispersion at concentrations shown below. Two plants were sprayed with each concentration. Each pair of plants was placed in a wire mesh cage, and four leafhoppers infected with the mycoplasma which causes aster yellows were placed in each cage. After 20 days, the plants were observed and disease control was rated as the percent of the plants' surface affected by the disease.

The test system of test [6] is H. meleagridis. Nature of the test: Blackhead in poultry, chicks. The test is classed as in vivo. The method, then:
as §3, §4, §5

The test system of the next test is Streptococcus sp. 80. Nature of the test: in vitro tube dilution test (MIC). The test is classed as cell-based. The conditions noted are these: Streptococcus sp. 80, tube dilution; read-out: MIC. An excerpt: Other compounds of our invention have also been tested in the tube dilution test and shown to have in vitro activity against a number of microorganisms. The table below reports tests of a number of exemplary compounds against exemplary microorganisms. The compounds are identified by their numbers in the listing above. The data are reported as the MIC in micrograms per milliliter against the named exemplary microorganisms.

The next test has as its system Mycoplasma synoviae. Nature of the test: in vitro tube dilution test (MIC). The test is classed as cell-based. The conditions noted are these: Mycoplasmopsis synoviae, footnote 1: M. synoviae. In a few lines: (§8)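 Standard tube dilution test; MIC reported as micrograms of compound per milliliter.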
The next test relates to Escherichia coli. Nature of the test: in vitro tube dilution test (MIC). Type of test: cell-based. The settings on record: tube dilution, read-out: MIC. In outline:
as §8

Each structure is given as a SMILES string. In brackets after ≈: the same amount, converted by molar mass. Like-named read-outs stand apart in the source and are kept apart here.

Regarding `CCOCCn1cc(C(N)=O)c([N+](=O)[O-])n1` [Compound 34, 1-(2-ethoxyethyl)-3-nitro-4-pyrazolecarboxamide], the minimum inhibitory concentration (MIC) (in general, the lowest concentration found to suppress growth) in test [1] (Staphylococcus aureus, SP.1130, Staphyloccocus 1130, tube dilution) is 6.25 µg/mL (≈ 27.4 µM); in the test with Vibrio coli 3811 it was 50 µg/mL (≈ 219 µM); in the test on Salmonella dublin, 25 µg/mL (≈ 110 µM); in the test with Pasteurella multocida it was 25 µg/mL (≈ 110 µM); in [3], 100 µg/mL (≈ 438 µM); in [4], 50 µg/mL (≈ 219 µM). Besides, the minimum inhibitory concentration (MIC) in the test with Pseudomonas sp. and in the test with Mycoplasma hyorhinis was 50 µg/mL (≈ 219 µM) each time. Also, the “Percent Control of fire blight” value in the test with Erwinia amylovora (100 ppm.) was 33%; in the test on Erwinia amylovora (500 ppm.) it was 66%. Besides, the “Days Survived” value stood at 5.0 days with Streptococcus pyogenes; 7.0 days in the test with E. coli (two subcutaneous doses of 83 mg./kg., 1 and 5 hours). Further, the “Active Level (lowest feed concentration which gave an active response)” value in the test on H. meleagridis [2] is given as “.02%”. For the same compound, the Survival in the test on S. typhimurium is on record as 25/48. The “Avg. Wt.” value in the test with S. typhimurium (surviving chicks) is listed as 62 gm. Besides, the responders at 60 mg/kg with Salmonella typhimurium is 40%. In addition, in the test with E. coli (Escherichia coli, sc, subcutaneous, 1 and 5 hours post-inoculation), the 50% effective dose (ED50) (as a rule, the dose that gives a 50% effect, or the effect in half of the subjects) was greater than 41 mg/kg. Further, in the test with avian E. coli, the “E. coli Lesions” value is 11/30. Moreover, in the test on avian E. coli, the Mortality was 0/30. In addition, the Wt. in the test with avian E. coli was found to be 1136 gm.
For `NC(=O)c1cn(CCOC(=O)Oc2ccccc2)nc1[N+](=O)[O-]` [Compound 77, [2-(4-carbamoyl-3-nitropyrazol-1-yl)ethyl] phenyl carbonate], the “mean disease control rating” value is 2.5 with E. amylovora (200 ppm.); 3.5 in the test on E. amylovora (400 ppm.); 3.0 in the test with E. amylovora (600 ppm.); 3.4 in the test on E. amylovora (800 ppm.); 3.5 in the test with E. amylovora (1000 ppm.); 3.5 with E. amylovora (1200 ppm.). In addition, the responders at 60 mg/kg with Salmonella typhimurium was 80%. Moreover, the entries for the “Percent Infection (percent of plants' surface affected)” value in [5] (Concentration 200 (unit not given)), in [5] (Concentration 400 (unit not given)) and in [5] (Concentration 800 (unit not given)) were 0%, 25% and 0%, respectively. The “Active Level (lowest feed concentration which gave an active response)” value with H. meleagridis [6] was “.02%”.
Consider `COC(=O)c1cn(CCO)nc1[N+](=O)[O-]` [Compound 71, methyl 1-(2-hydroxyethyl)-3-nitro-4-pyrazolecarboxylate], for which the MIC in [1] (Staphylococcus aureus sp. 1130, tube dilution) was greater than 50 µg/mL; in the test with Vibrio coli 3811, greater than 50 µg/mL; in the test with Salmonella dublin, greater than 50 µg/mL; with Streptococcus sp. 80, greater than 50 µg/mL; against Mycoplasma synoviae, 0.39 µg/mL (≈ 1.81 µM); in the test with Escherichia coli, greater than 50 µg/mL. Further, in the test with Pasteurella multocida, the minimal inhibitory concentration (MIC) is greater than 50 µg/mL.

The record behind these values is patent US4145554A, “3-Nitropyrazole derivatives” (Eli Lilly and Company, priority 1977, dated 1979).
